According to patent publication US4555403A, “Pharmacologically active peptides and medicaments containing the same” (priority 1979, dated 1985):
Non-standard residues stand in square brackets, D forms with d. Residues, ends and D or L forms follow the SMILES beside them.

Experiments:
[1] = stability of opiate-like activity towards rat blood plasma; type: in vitro ADME; conditions: for stability of opiate-like activity towards blood plasma: 300 μl freshly obtained rat blood plasma, 30 minutes stated for β-casomorphin-5
Protocol: Analogously to the above-mentioned incubation example we tested the stability of the opiate-like activity towards blood plasma. Instead of 300 μl of homogenate, we employed 300 μl of freshly obtained rat blood plasma.

[2] = stability of opiate-like activity upon incubation with rat brain homogenate and brain-supernate; type: in vitro ADME; conditions: for opiate-like activity after 30 minutes of incubation / opiate-like activity after 120 minutes of incubation: brain homogenate and brain-supernate, 37° C.
Protocol: All incubations of the substances with brain homogenate and brain-supernate take place at 37° C. The respective incubation time is terminated by heating for 10 min. at a temperature of 95° C. This heating up to 95° C. serves to destroy enzymes which are still present and which might be detrimental for the biological procedure for proving the opiate-like activity.
1-2 mg each of the β-casomorphin-5 and of the D-Ala^2 -β-casomorphin-5 according to the invention are put into 50 μl of H2 O and mixed with 300 μl each of brain homogenate and brain-supernate. A sample of each is immediately heated from 37° C. up to 95° C. prior to the incubation. Thus these samples are in contact with the active enzymes only for a very short time and their content of opiate-like activity serves as a reference value at a zero point of time.
After 15, 30, 60, and 120 min. each, further samples of the two incubated opiates are taken from the incubator and heated up to 95° C.
The guinea pig intestine test described by Kosterlitz et al supra, serves as a proving system, which also includes the opiate amounts quantitatively. […]

[3] = analgetic effect after parenteral or oral application in rats; type: in vivo; conditions: up to 150 mg per kg of body weight
Protocol: The dose in these tests amounted up to 150 mg per kg of body weight of the rats. This disadvantage of the known peptides can be partially or completely attributed to inactivation of the substance in the blood and/or the brain.

[4] = 0.35 μmol into the ventricle system of the brain, rats; cited from earlier work

| Compound | stability of opiate-like activity towards blood plasma [1] | opiate-like activity after 30 minutes of incubation [2] | opiate-like activity after 120 minutes of incubation [2] | incubation period after which opiate-like activity disappears ([1]; blood plasma) [min] | analgetic effect [3] | incubation period after which opiate-like activity disappears ([2]; rat brain homogenate) [min] | opiate-like analgesia [4] | time after which analgesia completely disappeared [4] [min] | time to maximum effectiveness of analgesia [4] [min] |
| --- | --- | --- | --- | --- | --- | --- | --- | --- | --- |
| COC(=O)CNC(=O)[C@@H]1CCCN1C(=O)[C@H](Cc1ccccc1)NC(=O)[C@@H](C)NC(=O)[C@@H](N)Cc1ccc(O)cc1 [D-Ala^2 -β-casomorphin-5, Tyr-D-Ala-Phe-Pro-Gly-methylester] (H-Y[dA]FPG-OMe) | retained its full activity | still could be proven | still could be proven |  |  |  |  |  |  |
| COC(=O)CNC(=O)[C@@H]1CCCN1C(=O)[C@H](Cc1ccccc1)NC(=O)[C@@H](CCCNC(=N)N)NC(=O)[C@@H](N)Cc1ccc(O)cc1 [D-Arg^2 -β-casomorphin-5, Tyr-D-Arg-Phe-Pro-Gly-methylester] (H-Y[dR]FPG-OMe) |  | still could be proven | still could be proven |  |  |  |  |  |  |
| COC(=O)CNC(=O)[C@@H]1CCCN1C(=O)[C@H](Cc1ccccc1)NC(=O)[C@@H](CCSC)NC(=O)[C@@H](N)Cc1ccc(O)cc1 [D-Met^2 -β-casomorphin-5, Tyr-D-Met-Phe-Pro-Gly-methylester] (H-Y[dM]FPG-OMe) |  | still could be proven | still could be proven |  |  |  |  |  |  |
| COC(=O)CNC(=O)[C@@H]1CCCN1C(=O)[C@H](Cc1ccccc1)NC(=O)[C@@H](CO)NC(=O)[C@@H](N)Cc1ccc(O)cc1 [D-Ser^2 -β-casomorphin-5, Tyr-D-Ser-Phe-Pro-Gly-methylester] (H-Y[dS]FPG-OMe) |  | still could be proven | still could be proven |  |  |  |  |  |  |
| Tyr-Pro-Phe-Pro-Gly (YPFPG; printed: Tyr-Pro-Phe-Pro-Gly) [β-casomorphin-5] | already destroyed | did not show any opiate-like activity any longer |  | 15 | does not show any analgetic effect | 15 | strong opiate-like analgesia | 60 | ≤ 10 |
